Measured values as given in PubChem BioAssay AID256 (DTP/NCI, 2004).
Where “and” joins values, the source holds several entries; their conditions need not be identical. Equal entries are not always repeated. Inconclusive results and toxic doses are left out. Rule for the calls: active = survival T/C of 150% or more; inactive = T/C below 125% in these data.

Tested on: CD2F1 mice, L1210 leukemia ip, survival T/C
Test: NCI In Vivo Anticancer Drug Screen. Data for tumor model L1210 Leukemia (intraperitoneal) in CD2F1 (CDF1) mice
Conditions: higher = longer survival
In short: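 Each value reflects a quotient of treated over vehicle control outcomes in mice with a transplanted tumor.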

[1] = endpoint: mean survival time, dose: 12.5 mg/kg/injection, schedule: Q01DX009 (ip), vehicle: saline with Tween-80
[2] = endpoint: mean survival time, dose: 50.0 mg/kg/injection, schedule: Q01DX009 (ip), vehicle: saline with Tween-80
[3] = endpoint: mean survival time, dose: 200.0 mg/kg/injection, schedule: Q01DX009 (ip), vehicle: saline with Tween-80
[4] = endpoint: mean survival time, dose: 100.0 mg/kg/injection, schedule: Q01DX009 (ip), vehicle: saline
[5] = endpoint: mean survival time, dose: 100.0 mg/kg/injection, schedule: Q04DX003 (ip), vehicle: saline with Tween-80
[6] = endpoint: mean survival time, dose: 200.0 mg/kg/injection, schedule: Q01DX009 (ip), vehicle: saline
[7] = endpoint: mean survival time, dose: 200.0 mg/kg/injection, schedule: Q04DX003 (ip), vehicle: saline with Tween-80
[8] = endpoint: mean survival time, dose: 400.0 mg/kg/injection, schedule: Q04DX003 (ip), vehicle: saline with Tween-80
[9] = endpoint: mean survival time, dose: 100.0 mg/kg/injection, schedule: Q01DX009 (ip), vehicle: saline with Tween-80
[10] = endpoint: mean survival time, dose: 50.0 mg/kg/injection, schedule: Q01DX009 (ip), vehicle: Klucel (hydroxypropylcellulose) (HPC)
[11] = endpoint: mean survival time, dose: 100.0 mg/kg/injection, schedule: Q01DX009 (ip), vehicle: Klucel (hydroxypropylcellulose) (HPC)
[12] = endpoint: mean survival time, dose: 200.0 mg/kg/injection, schedule: Q01DX009 (ip), vehicle: Klucel (hydroxypropylcellulose) (HPC)
[13] = endpoint: mean survival time, dose: 50.0 mg/kg/injection, schedule: Q01DX009 (ip), vehicle: saline

Measured: T/C

NCCSC1(O)C(=O)c2ccccc2-c2ccccc21 (stereo not given)
inactive: endpoint: mean survival time, dose: 37.5 mg/kg/injection, schedule: Q01DX009 (ip), vehicle: saline 100 % of control | endpoint: mean survival time, dose: 75.0 mg/kg/injection, schedule: Q01DX009 (ip), vehicle: saline 101 % of control | endpoint: mean survival time, dose: 150.0 mg/kg/injection, schedule: Q01DX009 (ip), vehicle: saline 91 % of control

COc1ccc(OC)c(/C=C/c2cc3ccccc3c[n+]2C)c1
inactive: endpoint: mean survival time, dose: 3.13 mg/kg/injection, schedule: Q01DX009 (ip), vehicle: saline with Tween-80 94 % of control | endpoint: mean survival time, dose: 6.25 mg/kg/injection, schedule: Q01DX009 (ip), vehicle: saline with Tween-80 102 % of control | [1] 105 % of control

[Cl][Dy]([Cl])[Cl]
inactive: [2] 89 % of control | [3] 90 % of control

COc1ccc(C(=O)/C=C/c2ccc(N(C)C)cc2)cc1
inactive: endpoint: mean survival time, dose: 75.0 mg/kg/injection, schedule: Q01DX001 (ip), vehicle: saline 95 % of control | endpoint: mean survival time, dose: 150.0 mg/kg/injection, schedule: Q01DX001 (ip), vehicle: saline 93 % of control

C=C1C=C(C)CC(C)(C)C1 (tested in a mixture with another compound)
inactive: [4] 101 % of control | [5] 102 % of control | [6] 101 % of control | [7] 100 % of control | endpoint: mean survival time, dose: 400.0 mg/kg/injection, schedule: Q01DX009 (ip), vehicle: saline 101 % of control | [8] 102 % of control

NCCS/C=C/C(=O)Oc1ccc(Br)cc1
inactive: [5] 103 % of control | [7] 96 % of control

Cc1ccc(S(=O)(=O)NNC(=O)c2ccccc2C(=O)O)cc1
inactive: endpoint: mean survival time, dose: 50.0 mg/kg/injection, schedule: Q04DX002 (ip), vehicle: saline with Tween-80 96 % of control | endpoint: mean survival time, dose: 100.0 mg/kg/injection, schedule: Q04DX002 (ip), vehicle: saline with Tween-80 100 % of control | endpoint: mean survival time, dose: 200.0 mg/kg/injection, schedule: Q04DX002 (ip), vehicle: saline with Tween-80 100 % of control | endpoint: mean survival time, dose: 400.0 mg/kg/injection, schedule: Q04DX002 (ip), vehicle: saline with Tween-80 96 % of control

COC1C(C)OC(OC2CC(C)(O)C(C(=O)O)c3cc4c(c(O)c32)C(=O)c2c(O)cc3c(c2C4=O)OC2OC3(C)C(O)C(N(C)C)C2O)C(OC)C1(C)OC (stereo not given)
inactive: endpoint: mean survival time, dose: 5.0 mg/kg/injection, schedule: Q01DX009 (ip), vehicle: other 113 % of control | endpoint: mean survival time, dose: 10.0 mg/kg/injection, schedule: Q01DX009 (ip), vehicle: other 107 % of control | endpoint: mean survival time, dose: 10.0 mg/kg/injection, schedule: Q04DX003 (ip), vehicle: other 113 % of control | endpoint: mean survival time, dose: 20.0 mg/kg/injection, schedule: Q01DX009 (ip), vehicle: other 118 % of control | endpoint: mean survival time, dose: 20.0 mg/kg/injection, schedule: Q04DX003 (ip), vehicle: other 113 % of control | endpoint: mean survival time, dose: 40.0 mg/kg/injection, schedule: Q04DX003 (ip), vehicle: other 117 % of control | endpoint: mean survival time, dose: 80.0 mg/kg/injection, schedule: Q04DX003 (ip), vehicle: other 115 % of control

O=C1CSC2(CCN(Cc3ccccc3)CC2)O1
inactive: endpoint: mean survival time, dose: 100.0 mg/kg/injection, schedule: Q01DX001 (ip), vehicle: saline 98 % of control | endpoint: mean survival time, dose: 200.0 mg/kg/injection, schedule: Q01DX001 (ip), vehicle: saline 102 % of control | endpoint: mean survival time, dose: 400.0 mg/kg/injection, schedule: Q01DX001 (ip), vehicle: saline 95 % of control

O=c1[nH]c2ccccc2nc1CBr
inactive: endpoint: mean survival time, dose: 3.75 mg/kg/injection, schedule: Q01DX009 (ip), vehicle: saline with Tween-80 98 % of control | endpoint: mean survival time, dose: 7.5 mg/kg/injection, schedule: Q01DX009 (ip), vehicle: saline with Tween-80 110 % of control | [1] 113 % of control | endpoint: mean survival time, dose: 15.0 mg/kg/injection, schedule: Q01DX009 (ip), vehicle: saline with Tween-80 104 % of control

CCCCCCCN(CCCCCCC)CC(O)c1cc2ccc(Br)cc2c2cccnc12 (stereo not given)
inactive: [9] 95 % of control | [3] 92 % of control

OCCN(c1ccccc1)C1CCCCC1
inactive: [10] 113 % of control | [11] 102 % of control | [12] 106 % of control

C[As](C)SCC1OC(n2ncc(=O)[nH]c2=O)C2OC(C)(C)OC12 (stereo not given)
inactive: endpoint: median survival time, dose: 12.5 mg/kg/injection, schedule: Q01DX005 (ip), vehicle: distilled water + Tween-80 97 % of control | endpoint: median survival time, dose: 25.0 mg/kg/injection, schedule: Q01DX005 (ip), vehicle: distilled water + Tween-80 105 % of control | endpoint: median survival time, dose: 50.0 mg/kg/injection, schedule: Q01DX005 (ip), vehicle: distilled water + Tween-80 94 % of control | endpoint: median survival time, dose: 100.0 mg/kg/injection, schedule: Q01DX005 (ip), vehicle: distilled water + Tween-80 101 % of control | endpoint: median survival time, dose: 200.0 mg/kg/injection, schedule: Q01DX005 (ip), vehicle: distilled water + Tween-80 101 % of control

CCOC(=O)c1ccc(NC(=O)Nc2nccs2)cc1
inactive: endpoint: mean survival time, dose: 6.25 mg/kg/injection, schedule: Q01DX009 (ip), vehicle: Klucel (hydroxypropylcellulose) (HPC) 101 % of control | endpoint: mean survival time, dose: 6.25 mg/kg/injection, schedule: Q01DX009 (oral), vehicle: Klucel (hydroxypropylcellulose) (HPC) 101 % of control | endpoint: mean survival time, dose: 12.5 mg/kg/injection, schedule: Q01DX009 (ip), vehicle: Klucel (hydroxypropylcellulose) (HPC) 100 % of control | [1] 108 % of control | endpoint: mean survival time, dose: 12.5 mg/kg/injection, schedule: Q01DX009 (oral), vehicle: Klucel (hydroxypropylcellulose) (HPC) 100 % of control | endpoint: mean survival time, dose: 12.5 mg/kg/injection, schedule: Q01DX009 (oral), vehicle: saline with Tween-80 103 % of control | endpoint: mean survival time, dose: 25.0 mg/kg/injection, schedule: Q01DX009 (ip), vehicle: Klucel (hydroxypropylcellulose) (HPC) 97 % of control | endpoint: mean survival time, dose: 25.0 mg/kg/injection, schedule: Q01DX009 (ip), vehicle: saline with Tween-80 110 % of control | endpoint: mean survival time, dose: 25.0 mg/kg/injection, schedule: Q01DX009 (oral), vehicle: Klucel (hydroxypropylcellulose) (HPC) 100 % of control | endpoint: mean survival time, dose: 25.0 mg/kg/injection, schedule: Q01DX009 (oral), vehicle: saline with Tween-80 97 % of control | [10] 97 % of control | [2] 114 % of control and 122 % of control | endpoint: mean survival time, dose: 50.0 mg/kg/injection, schedule: Q01DX009 (oral), vehicle: Klucel (hydroxypropylcellulose) (HPC) 105 % of control | endpoint: mean survival time, dose: 50.0 mg/kg/injection, schedule: Q01DX009 (oral), vehicle: saline with Tween-80 100 % of control | [11] 105 % of control | [9] 121 % of control and 110 % of control | endpoint: mean survival time, dose: 100.0 mg/kg/injection, schedule: Q01DX009 (oral), vehicle: Klucel (hydroxypropylcellulose) (HPC) 95 % of control | endpoint: mean survival time, dose: 100.0 mg/kg/injection, schedule: Q01DX009 (oral), vehicle: saline with Tween-80 101 % of control | [12] 110 % of control | [3] 106 % of control | endpoint: mean survival time, dose: 200.0 mg/kg/injection, schedule: Q01DX009 (oral), vehicle: Klucel (hydroxypropylcellulose) (HPC) 100 % of control | endpoint: mean survival time, dose: 200.0 mg/kg/injection, schedule: Q01DX009 (oral), vehicle: saline with Tween-80 95 % of control | endpoint: mean survival time, dose: 400.0 mg/kg/injection, schedule: Q01DX009 (ip), vehicle: saline with Tween-80 121 % of control | endpoint: mean survival time, dose: 400.0 mg/kg/injection, schedule: Q01DX009 (oral), vehicle: saline with Tween-80 97 % of control

BrC1CCCCCCC1Br (stereo not given)
inactive: endpoint: mean survival time, dose: 25.0 mg/kg/injection, schedule: Q01DX009 (ip), vehicle: saline 96 % of control | [13] 94 % of control | [4] 93 % of control

CCCN(CCC)CC(C)O (stereo not given)
inactive: [13] 95 % of control | [4] 101 % of control | [6] 97 % of control

Nc1nc2c(nc(Br)n2C2OC(CO)C(O)C2O)c(=O)[nH]1 (stereo not given)
inactive: [5] 98 % of control | [7] 102 % of control | [8] 94 % of control

CC(=O)OC1CCC2(C)C3CCC4(C)C(C(C)CCCC(C)C)CCC4C3C3C(=O)OC32C1 (stereo not given)
inactive: endpoint: mean survival time, dose: 100.0 mg/kg/injection, schedule: Q01DX001 (ip), vehicle: acetone 97 % of control | endpoint: mean survival time, dose: 100.0 mg/kg/injection, schedule: Q04DX003 (ip), vehicle: acetone 98 % of control | endpoint: mean survival time, dose: 200.0 mg/kg/injection, schedule: Q01DX001 (ip), vehicle: acetone 101 % of control | endpoint: mean survival time, dose: 200.0 mg/kg/injection, schedule: Q04DX003 (ip), vehicle: acetone 93 % of control | endpoint: mean survival time, dose: 400.0 mg/kg/injection, schedule: Q01DX001 (ip), vehicle: acetone 97 % of control | endpoint: mean survival time, dose: 400.0 mg/kg/injection, schedule: Q04DX003 (ip), vehicle: acetone 90 % of control
